In the NIST ThermoML archive (doi:10.1016/j.jct.2018.05.017) one finds mass density data, which are given here for one compound.

± gives the expanded uncertainty stated by the source.

For this data set the following is noted: 101.33 kPa, Liquid, Vibrating tube method.

As for `CCCCCCn1cc[n+](C)c1C.F[B-](F)(F)F` [1-hexyl-2,3-dimethylimidazolium tetrafluoroborate], the mass density runs as follows: (313.15 K) 1129.8 ± 2.4 kg/m3; (323.15 K) 1123.3 ± 2.4 kg/m3; (333.15 K) 1116.8 ± 2.4 kg/m3; (343.15 K) 1110.3 ± 2.4 kg/m3; (353.15 K) 1103.87 ± 2.4 kg/m3.

The term mass density denotes mass per unit of volume.
